Measured values reported in PubChem BioAssay (NCI).
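The compound was tested at five concentrations on cells cultured in 96-well plates, with a 48-hour exposure period. TGI is the concentration that stops growth completely.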 Where a SMILES comes first, the peptide text is derived from it. The star is where a group is joined. Cbz = O=C(OCc1ccccc1)*; Boc = CC(C)(C)OC(=O)*; Bn = c1ccc(C*)cc1

Key:
Test in all cases: DTP human tumour cell line panel, 48 h
CCRF-CEM leukemia = system: CCRF-CEM leukemia
NCI-H522 lung = system: NCI-H522 lung
SF-539 CNS = system: SF-539 CNS
OVCAR-3 ovarian = system: OVCAR-3 ovarian
SNB-19 CNS = system: SNB-19 CNS
SK-MEL-2 melanoma = system: SK-MEL-2 melanoma
MOLT-4 leukemia = system: MOLT-4 leukemia
SN12C renal = system: SN12C renal
A549 NSCLC = system: A549 NSCLC
IGROV1 ovarian = system: IGROV1 ovarian
SNB-75 CNS = system: SNB-75 CNS
HOP-62 NSCLC = system: HOP-62 NSCLC
OVCAR-5 ovarian = system: OVCAR-5 ovarian
SF-268 CNS = system: SF-268 CNS
MDA-MB-435 = system: MDA-MB-435
786-0 renal = system: 786-0 renal
DU-145 prostate = system: DU-145 prostate
NCI-H23 lung = system: NCI-H23 lung
NCI-H460 lung = system: NCI-H460 lung
HL-60(TB) leukemia = system: HL-60(TB) leukemia
KM12 colon = system: KM12 colon
RXF 393 renal = system: RXF 393 renal
BT-549 breast = system: BT-549 breast
HCT-116 colon = system: HCT-116 colon
TK-10 renal = system: TK-10 renal
HS 578T breast = system: HS 578T breast
RPMI-8226 leukemia = system: RPMI-8226 leukemia
HCC-2998 colon = system: HCC-2998 colon
MDA-MB-231 breast = system: MDA-MB-231 breast
HCT-15 colon = system: HCT-15 colon
UO-31 renal = system: UO-31 renal
MCF7 breast = system: MCF7 breast
NCI/ADR-RES ovarian = system: NCI/ADR-RES ovarian
SK-MEL-5 melanoma = system: SK-MEL-5 melanoma
SW-620 colon = system: SW-620 colon
MALME-3M melanoma = system: MALME-3M melanoma
COLO 205 colon = system: COLO 205 colon
MDA-N = system: MDA-N
M14 melanoma = system: M14 melanoma
OVCAR-8 ovarian = system: OVCAR-8 ovarian
LOX IMVI melanoma = system: LOX IMVI melanoma
SF-295 CNS = system: SF-295 CNS
PC-3 prostate = system: PC-3 prostate
K-562 leukemia = system: K-562 leukemia
UACC-62 melanoma = system: UACC-62 melanoma
UACC-257 melanoma = system: UACC-257 melanoma
SR leukemia = system: SR leukemia
ACHN renal = system: ACHN renal
HT29 colon = system: HT29 colon
U251 CNS = system: U251 CNS
SK-MEL-28 melanoma = system: SK-MEL-28 melanoma
EKVX NSCLC = system: EKVX NSCLC
NCI-H226 lung = system: NCI-H226 lung
T-47D breast = system: T-47D breast
SK-OV-3 ovarian = system: SK-OV-3 ovarian
OVCAR-4 ovarian = system: OVCAR-4 ovarian
CAKI-1 renal = system: CAKI-1 renal
A498 renal = system: A498 renal
HOP-92 NSCLC = system: HOP-92 NSCLC

CC(=O)CCC(=O)C(=[N+]=[N-])S(=O)(=O)c1ccccc1
TGI (CCRF-CEM leukemia): > 100 µM
TGI (NCI-H522 lung): > 100 µM
TGI (SF-539 CNS): > 100 µM
TGI (OVCAR-3 ovarian): > 100 µM
TGI (SNB-19 CNS): > 100 µM
TGI (SK-MEL-2 melanoma): > 100 µM
TGI (MOLT-4 leukemia): > 100 µM
TGI (SN12C renal): > 100 µM
TGI (A549 NSCLC): > 100 µM
TGI (IGROV1 ovarian): > 100 µM
TGI (SNB-75 CNS): > 100 µM
TGI (HOP-62 NSCLC): > 100 µM
TGI (OVCAR-5 ovarian): > 100 µM
TGI (SF-268 CNS): > 100 µM
TGI (MDA-MB-435): > 100 µM
TGI (786-0 renal): > 100 µM
TGI (DU-145 prostate): > 100 µM
TGI (NCI-H23 lung): > 100 µM
TGI (NCI-H460 lung): > 100 µM
TGI (HL-60(TB) leukemia): > 100 µM
TGI (KM12 colon): > 100 µM
TGI (RXF 393 renal): > 100 µM
TGI (BT-549 breast): > 100 µM
TGI (HCT-116 colon): > 100 µM
TGI (TK-10 renal): > 100 µM
TGI (HS 578T breast): > 100 µM
TGI (RPMI-8226 leukemia): > 100 µM
TGI (HCC-2998 colon): > 100 µM
TGI (MDA-MB-231 breast): > 100 µM
TGI (HCT-15 colon): > 100 µM
TGI (UO-31 renal): > 100 µM
TGI (MCF7 breast): > 100 µM
TGI (NCI/ADR-RES ovarian): > 100 µM
TGI (SK-MEL-5 melanoma): > 100 µM
TGI (SW-620 colon): > 100 µM
TGI (MALME-3M melanoma): > 100 µM
TGI (COLO 205 colon): > 100 µM
TGI (MDA-N): > 100 µM
TGI (M14 melanoma): > 100 µM
TGI (OVCAR-8 ovarian): > 100 µM
TGI (LOX IMVI melanoma): > 100 µM
TGI (SF-295 CNS): > 100 µM
TGI (PC-3 prostate): > 100 µM
TGI (K-562 leukemia): > 100 µM
TGI (UACC-62 melanoma): > 100 µM
TGI (UACC-257 melanoma): > 100 µM
TGI (SR leukemia): > 100 µM
TGI (ACHN renal): > 100 µM
TGI (HT29 colon): > 100 µM
TGI (U251 CNS): > 100 µM
TGI (SK-MEL-28 melanoma): > 100 µM
TGI (EKVX NSCLC): > 100 µM

Cc1cc(OCc2nn(CN3CCN(C)CC3)c(=S)n2/N=C/c2ccc(-c3ccc(Cl)cc3Cl)o2)ccc1Cl
TGI (CCRF-CEM leukemia): > 100 µM
TGI (NCI-H522 lung): 59 µM
TGI (NCI-H226 lung): > 100 µM
TGI (SF-539 CNS): > 100 µM
TGI (OVCAR-3 ovarian): > 100 µM
TGI (SK-MEL-2 melanoma): > 100 µM
TGI (MOLT-4 leukemia): > 100 µM
TGI (T-47D breast): > 100 µM
TGI (SK-OV-3 ovarian): > 100 µM
TGI (IGROV1 ovarian): > 100 µM
TGI (HOP-62 NSCLC): > 100 µM
TGI (OVCAR-5 ovarian): > 100 µM
TGI (SF-268 CNS): > 100 µM
TGI (MDA-MB-435): > 100 µM
TGI (786-0 renal): > 100 µM
TGI (DU-145 prostate): > 100 µM
TGI (NCI-H23 lung): > 100 µM
TGI (OVCAR-4 ovarian): 70.6 µM
TGI (NCI-H460 lung): > 100 µM
TGI (HL-60(TB) leukemia): 52.6 µM
TGI (KM12 colon): 47.6 µM
TGI (RXF 393 renal): 41.3 µM
TGI (HCT-116 colon): > 100 µM
TGI (TK-10 renal): > 100 µM
TGI (HS 578T breast): > 100 µM
TGI (RPMI-8226 leukemia): > 100 µM
TGI (HCC-2998 colon): 31.4 µM
TGI (CAKI-1 renal): > 100 µM
TGI (MDA-MB-231 breast): > 100 µM
TGI (HCT-15 colon): > 100 µM
TGI (UO-31 renal): > 100 µM
TGI (MCF7 breast): > 100 µM
TGI (NCI/ADR-RES ovarian): > 100 µM
TGI (SK-MEL-5 melanoma): > 100 µM
TGI (SW-620 colon): 51 µM
TGI (MDA-N): > 100 µM
TGI (M14 melanoma): > 100 µM
TGI (OVCAR-8 ovarian): > 100 µM
TGI (LOX IMVI melanoma): > 100 µM
TGI (SF-295 CNS): > 100 µM
TGI (PC-3 prostate): > 100 µM
TGI (K-562 leukemia): > 100 µM
TGI (UACC-257 melanoma): > 100 µM
TGI (A498 renal): > 100 µM
TGI (HOP-92 NSCLC): 95.9 µM
TGI (ACHN renal): > 100 µM
TGI (HT29 colon): > 100 µM
TGI (U251 CNS): > 100 µM
TGI (SK-MEL-28 melanoma): > 100 µM
TGI (EKVX NSCLC): > 100 µM

CC(C)(C)OC(=O)NC(Cc1ccc(OCc2ccccc2)cc1)C(=O)NC(CCCCNC(=O)OCc1ccccc1)C(=O)O (centres undefined) (Boc-Tyr(Bn)-Lys(Cbz)-OH; configuration not given here)
TGI (CCRF-CEM leukemia): > 100 µM
TGI (NCI-H226 lung): > 100 µM
TGI (SNB-19 CNS): > 100 µM
TGI (SK-MEL-2 melanoma): 80 µM
TGI (MOLT-4 leukemia): 85.1 µM
TGI (SN12C renal): > 100 µM
TGI (A549 NSCLC): > 100 µM
TGI (IGROV1 ovarian): > 100 µM
TGI (SNB-75 CNS): > 100 µM
TGI (HOP-62 NSCLC): > 100 µM
TGI (OVCAR-5 ovarian): > 100 µM
TGI (786-0 renal): > 100 µM
TGI (NCI-H23 lung): > 100 µM
TGI (HL-60(TB) leukemia): 86.9 µM
TGI (KM12 colon): > 100 µM
TGI (RXF 393 renal): > 100 µM
TGI (BT-549 breast): 60.8 µM
TGI (HCT-116 colon): > 100 µM
TGI (TK-10 renal): > 100 µM
TGI (HS 578T breast): > 100 µM
TGI (RPMI-8226 leukemia): > 100 µM
TGI (HCC-2998 colon): > 100 µM
TGI (MDA-MB-231 breast): > 100 µM
TGI (UO-31 renal): > 100 µM
TGI (MCF7 breast): > 100 µM
TGI (SK-MEL-5 melanoma): > 100 µM
TGI (SW-620 colon): > 100 µM
TGI (MALME-3M melanoma): > 100 µM
TGI (COLO 205 colon): > 100 µM
TGI (MDA-N): > 100 µM
TGI (M14 melanoma): > 100 µM
TGI (OVCAR-8 ovarian): > 100 µM
TGI (PC-3 prostate): > 100 µM
TGI (K-562 leukemia): > 100 µM
TGI (UACC-62 melanoma): 43.9 µM
TGI (UACC-257 melanoma): > 100 µM
TGI (HOP-92 NSCLC): 48.5 µM
TGI (SR leukemia): 89.6 µM
TGI (HT29 colon): > 100 µM
TGI (U251 CNS): > 100 µM
TGI (SK-MEL-28 melanoma): 44.2 µM
TGI (EKVX NSCLC): > 100 µM

C=C[C@H]1CC[C@H]2[C@@H]3CC=C4C[C@@H](OC5OCC(O)C(O)C5O)CC[C@]4(C)[C@H]3CC[C@]12C (some centres undefined)
TGI (CCRF-CEM leukemia): > 100 µM
TGI (NCI-H522 lung): 25.9 µM
TGI (NCI-H226 lung): 34.6 µM
TGI (SF-539 CNS): 28.6 µM
TGI (OVCAR-3 ovarian): 25.5 µM
TGI (SNB-19 CNS): 65.9 µM
TGI (SK-MEL-2 melanoma): 34.5 µM
TGI (MOLT-4 leukemia): > 100 µM
TGI (T-47D breast): 55.3 µM
TGI (SK-OV-3 ovarian): 28.5 µM
TGI (SN12C renal): 33.2 µM
TGI (A549 NSCLC): 27.5 µM
TGI (IGROV1 ovarian): 45.2 µM
TGI (HOP-62 NSCLC): > 100 µM
TGI (OVCAR-5 ovarian): 28.1 µM
TGI (SF-268 CNS): 36.2 µM
TGI (MDA-MB-435): 47.8 µM
TGI (786-0 renal): 34.1 µM
TGI (DU-145 prostate): > 100 µM
TGI (NCI-H23 lung): 66.3 µM
TGI (NCI-H460 lung): 28.4 µM
TGI (HL-60(TB) leukemia): > 100 µM
TGI (KM12 colon): 31.8 µM
TGI (HCT-116 colon): 28.4 µM
TGI (HS 578T breast): 48.3 µM
TGI (RPMI-8226 leukemia): > 100 µM
TGI (CAKI-1 renal): 23.8 µM
TGI (MDA-MB-231 breast): 39.6 µM
TGI (HCT-15 colon): > 100 µM
TGI (UO-31 renal): 30 µM
TGI (MCF7 breast): > 100 µM
TGI (NCI/ADR-RES ovarian): 38.1 µM
TGI (SK-MEL-5 melanoma): > 100 µM
TGI (SW-620 colon): 40.2 µM
TGI (COLO 205 colon): > 100 µM
TGI (MDA-N): 65.8 µM
TGI (M14 melanoma): 40.9 µM
TGI (OVCAR-8 ovarian): 33.5 µM
TGI (LOX IMVI melanoma): 26.7 µM
TGI (SF-295 CNS): 29.7 µM
TGI (PC-3 prostate): 37.7 µM
TGI (K-562 leukemia): > 100 µM
TGI (UACC-62 melanoma): 54.3 µM
TGI (UACC-257 melanoma): > 100 µM
TGI (A498 renal): 21 µM
TGI (HOP-92 NSCLC): 16.8 µM
TGI (SR leukemia): 33.7 µM
TGI (ACHN renal): 10.8 µM
TGI (HT29 colon): 61.3 µM
TGI (U251 CNS): 30.5 µM
